The text below walks through data of patent US9409892B2, “4-hydroxy-isoquinoline compounds as HIF hydroxylase inhibitors” (FIBROGEN, INC., priority 2012, dated 2016).

As usually defined, the IC50 is the concentration that inhibits the measured activity by half.

Where “and” joins values, the source holds several entries; their conditions need not be identical. Identical values can stand only once. Like-named read-outs stand apart in the source and are kept apart here.

The target of one assay is PHD2 (EGLN1) (Homo sapiens (Human), UniProt Q9GZT9). Briefly: HIF-PH assay (14CO2 capture), PHD2 enzyme inhibition. It is filed as biochemical. Conditions: Table 1.
Chain of PHD2 (EGLN1) (Q9GZT9 whole entry): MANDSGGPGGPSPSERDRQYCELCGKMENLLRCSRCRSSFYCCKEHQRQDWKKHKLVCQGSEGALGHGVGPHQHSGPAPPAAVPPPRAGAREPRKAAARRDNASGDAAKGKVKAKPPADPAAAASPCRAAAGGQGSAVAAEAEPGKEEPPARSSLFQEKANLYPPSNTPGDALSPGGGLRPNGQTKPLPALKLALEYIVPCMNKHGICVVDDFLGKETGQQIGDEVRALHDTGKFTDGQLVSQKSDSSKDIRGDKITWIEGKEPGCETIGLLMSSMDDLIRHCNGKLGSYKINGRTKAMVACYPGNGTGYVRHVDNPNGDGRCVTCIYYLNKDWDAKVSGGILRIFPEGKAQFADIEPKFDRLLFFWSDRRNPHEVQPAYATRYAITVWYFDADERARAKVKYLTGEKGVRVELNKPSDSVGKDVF
The next assay concerns the target PHD1 (EGLN2) (Homo sapiens (Human), UniProt Q96KS0). Description: HIF-PH assay (14CO2 capture), PHD1 enzyme inhibition. The conditions noted are these: Table 1; for PHD2/PHD1: ratio of the IC50 of the compound for each enzyme. In kind it is biochemical.
Where [1] appears, read: individual measurement, read-out: IC50 (μM) PHD2.
[2] abbreviates: individual measurement, read-out: IC50 (μM) PHD1.

Chain of PHD1 (EGLN2) (Q96KS0 whole entry): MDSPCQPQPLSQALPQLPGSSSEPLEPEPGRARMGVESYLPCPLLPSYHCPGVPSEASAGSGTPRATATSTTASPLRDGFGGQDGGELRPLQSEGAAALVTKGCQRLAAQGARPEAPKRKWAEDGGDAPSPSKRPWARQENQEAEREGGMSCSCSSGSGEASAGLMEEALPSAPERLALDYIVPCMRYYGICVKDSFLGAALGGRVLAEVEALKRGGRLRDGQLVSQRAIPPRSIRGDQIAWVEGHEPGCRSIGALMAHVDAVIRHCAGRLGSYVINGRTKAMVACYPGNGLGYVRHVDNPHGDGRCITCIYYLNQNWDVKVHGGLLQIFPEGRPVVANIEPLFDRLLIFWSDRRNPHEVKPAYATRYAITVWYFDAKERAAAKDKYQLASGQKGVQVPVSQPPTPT

Regarding `Cc1cccc(C)c1Oc1ccc2c(C#N)nc(C(=O)NCCCCC(=O)O)c(O)c2c1` [Compound 111, 5-{[1-Cyano-6-(2,6-dimethyl-phenoxy)-4-hydroxy-isoquinoline-3-carbonyl]-amino}-pentanoic acid], the IC50 on PHD2 (EGLN1) (setting [1]) was determined as 112 µM; at PHD1 (EGLN2) (setting [2]), 10.5 µM. Also, the PHD2/PHD1 on PHD1 (EGLN2) is reported as 11.
In the same order, the values of `CC(C)(CNC(=O)c1nc(C#N)c2cc(OC3CCCCC3)ccc2c1O)C(=O)O` [Compound 156, 3-[(1-Cyano-7-cyclohexyloxy-4-hydroxy-isoquinoline-3-carbonyl)-amino]-2,2-dimethyl-propionic acid] are 23.5 µM, 1.49 µM and 16.
In the same order, the values of `N#Cc1nc(C(=O)NCC2(C(=O)O)CC2)c(O)c2ccc(Oc3ccccc3)cc12` [Compound 12, 1-{[(1-Cyano-4-hydroxy-7-phenoxy-isoquinoline-3-carbonyl)-amino]-methyl}-cyclopropanecarboxylic acid] are 1.62 µM, 0.17 µM and 9.
Take `N#Cc1nc(C(=O)N[C@H]2CCCC[C@H]2C(=O)O)c(O)c2ccc(Oc3ccccc3)cc12` (relative stereo) [Compound 32, cis-2-(1-Cyano-4-hydroxy-7-phenoxyisoquinoline-3-carboxamido)cyclohexanecarboxylic acid]: the figures for the IC50 at PHD2 (EGLN1) (setting [1]) and on PHD1 (EGLN2) (setting [2]) were 182 µM and 27.9 µM, respectively. Further, the PHD2/PHD1 on PHD1 (EGLN2) came out at 6.
As for `N#Cc1nc(C(=O)N[C@@H](CC(=O)O)c2ccccc2)c(O)c2ccc(Oc3ccccc3)cc12` [Compound 47, (S)-3-[(1-Cyano-4-hydroxy-7-phenoxy-isoquinoline-3-carbonyl)-amino]-3-phenyl-propionic acid], the results for the IC50 on PHD2 (EGLN1) (setting [1]) and on PHD1 (EGLN2) (setting [2]) were 30.2 µM and 1.28 µM, respectively. In addition, the PHD2/PHD1 on PHD1 (EGLN2) stood at 24.
Turning to `CC(C)(CNC(=O)c1nc(C#N)c2cc(S(=O)(=O)C3CCCCC3)ccc2c1O)C(=O)O` [Compound 160, 3-[(1-Cyano-7-cyclohexanesulfonyl-4-hydroxy-isoquinoline-3-carbonyl)-amino]-2,2-dimethyl-propionic acid], the IC50 stood at 200 µM at PHD2 (EGLN1) (setting [1]) and 17.4 µM on PHD1 (EGLN2) (setting [2]). For the same molecule, the PHD2/PHD1 at PHD1 (EGLN2) worked out at 12.
For `CC(C)(CNC(=O)c1ncc2cc(-c3ccccc3)ccc2c1O)C(=O)O` [Compound 129, 3-[(4-Hydroxy-7-phenyl-isoquinoline-3-carbonyl)-amino]-2,2-dimethyl-propionic acid], in that order: 180 µM, 25.3 µM and 7.
Consider `CC(C)CC(CC(=O)O)NC(=O)c1nc(C#N)c2cc(Oc3ccccc3)ccc2c1O` (centres unmarked) [Compound 66, 3-[(1-Cyano-4-hydroxy-7-phenoxy-isoquinoline-3-carbonyl)-amino]-5-methyl-hexanoic acid], for which the IC50 at PHD2 (EGLN1) (average of multiple independent measurements, read-out: IC50 (μM) PHD2 avg.) is 53.5 µM; at PHD2 (EGLN1) (setting [1]) it was 26.5 µM and 80.5 µM; at PHD1 (EGLN2) (average of multiple independent measurements, read-out: IC50 (μM) PHD1 avg.) it was 5.52 µM; on PHD1 (EGLN2) (setting [2]) it was 6.23 µM and 4.8 µM. The PHD2/PHD1 avg. at PHD1 (EGLN2) (average of the ratios of multiple independent measurements) came to 10.5 avg.
On to `N#Cc1nc(C(=O)NCC2(C(=O)O)CCC2)c(O)c2ccc(Sc3ccccc3)cc12` [Compound 154, 1-{[(1-Cyano-4-hydroxy-7-phenylsulfanyl-isoquinoline-3-carbonyl)-amino]-methyl}-cyclobutanecarboxylic acid], for which the IC50 turned out to be 1.9 µM on PHD2 (EGLN1) (setting [1]) and 0.11 µM at PHD1 (EGLN2) (setting [2]). Further, the PHD2/PHD1 on PHD1 (EGLN2) came out at 18.
For `N#Cc1nc(C(=O)N[C@@H](CO)CC(=O)O)c(O)c2ccc(Oc3ccccc3)cc12` [Compound 37, (R)-3-(1-Cyano-4-hydroxy-7-phenoxyisoquinoline-3-carboxamido)-4-hydroxybutanoic acid], in that order: 159 µM, 6.67 µM and 24.
For `CC(C)(CNC(=O)c1nc(C#N)c2cc(Oc3ccccc3Cl)ccc2c1O)C(=O)O` [Compound 38, 3-(7-(2-Chlorophenoxy)-1-cyano-4-hydroxyisoquinoline-3-carboxamido)-2,2-dimethylpropanoic acid], in that order: 4.79 µM, 0.24 µM and 20.
In the same order, the values of `O=C(NCC[C@H](O)C(=O)O)c1ncc2cc(Oc3ccccc3)ccc2c1O` [Compound 7, 2-(S)-Hydroxy-4-[(4-hydroxy-7-phenoxy-isoquinoline-3-carbonyl)-amino]-butyric acid] are 52.7 µM, 3.02 µM and 17.
For the molecule `CC(C)(CNC(=O)c1nc(C#N)c2cc(NC(=O)NCc3ccccc3)ccc2c1O)C(=O)O` [Compound 162, 3-{[7-(3-Benzyl-ureido)-1-cyano-4-hydroxy-isoquinoline-3-carbonyl]-amino}-2,2-dimethyl-propionic acid], the IC50 on PHD2 (EGLN1) (setting [1]) worked out at 24.1 µM; at PHD1 (EGLN2) (setting [2]) it was 2.35 µM. In addition, the PHD2/PHD1 on PHD1 (EGLN2) is 10.
With `O=C(O)CCNC(=O)c1ncc2cc(NC(=O)Nc3ccccc3)ccc2c1O` [Compound 116, 3-{[4-Hydroxy-7-(3-phenyl-ureido)-isoquinoline-3-carbonyl]-amino}-propionic acid], the IC50 was 29.2 µM at PHD2 (EGLN1) (setting [1]) and 3.34 µM at PHD1 (EGLN2) (setting [2]). In addition, the PHD2/PHD1 on PHD1 (EGLN2) came out at 9.
In the same order, the values of `N#Cc1nc(C(=O)N[C@H](CC(=O)O)c2cccnc2)c(O)c2ccc(Oc3ccccc3)cc12` [Compound 176, 3-(R)-[(1-Cyano-4-hydroxy-7-phenoxy-isoquinoline-3-carbonyl)-amino]-3-pyridin-3-yl-propionic acid] are 24.6 µM, 4.08 µM and 6.
For `CC(C)(CNC(=O)c1nc(C#N)c2cc(Oc3ccccc3)ccc2c1O)C(=O)O` [Compound 77, 3-[(1-Cyano-4-hydroxy-7-phenoxy-isoquinoline-3-carbonyl)-amino]-2,2-dimethyl-propionic acid], in that order: 9.12 µM, 0.41 µM and 22.
In the same order, the values of `N#Cc1nc(C(=O)NCC(F)(F)C(=O)O)c(O)c2ccc(Oc3ccccc3)cc12` [Compound 65, 3-[(1-Cyano-4-hydroxy-7-phenoxy-isoquinoline-3-carbonyl)-amino]-2,2-difluoro-propionic acid] are 5.99 µM, 0.73 µM and 8.
In the case of `N#Cc1nc(C(=O)NC(CC(=O)O)c2ccc(Cl)cc2)c(O)c2ccc(Oc3ccccc3)cc12` (centres unmarked) [Compound 173, 3-(4-Chloro-phenyl)-3-[(1-cyano-4-hydroxy-7-phenoxy-isoquinoline-3-carbonyl)-amino]-propionic acid], the IC50 is 20.9 µM on PHD2 (EGLN1) (setting [1]) and 3.97 µM at PHD1 (EGLN2) (setting [2]). Further, the PHD2/PHD1 on PHD1 (EGLN2) is listed as 5.
As for `N#Cc1nc(C(=O)NCC2(C(=O)O)CCC2)c(O)c2ccc(OC3CCCCC3)cc12` [Compound 159, 1-{[(1-Cyano-7-cyclohexyloxy-4-hydroxy-isoquinoline-3-carbonyl)-amino]-methyl}-cyclobutanecarboxylic acid], the IC50 at PHD2 (EGLN1) (setting [1]) is 7.9 µM; at PHD1 (EGLN2) (setting [2]) it was 0.91 µM. For the same molecule, the PHD2/PHD1 on PHD1 (EGLN2) is reported as 9.
